Target: T1, Human type-X sPLA2 (Homo sapiens, UniProt O15496)
T1 construct: made in house; unpurified culture supernatant
T1 sequence (O15496 43-165): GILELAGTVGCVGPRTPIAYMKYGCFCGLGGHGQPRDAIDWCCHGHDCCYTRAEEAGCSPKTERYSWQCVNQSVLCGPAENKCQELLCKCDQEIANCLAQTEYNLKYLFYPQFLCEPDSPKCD
Test: Type-X sPLA2 inhibition test (chromogenic assay, diheptanoylthio PC)
Type: biochemical
Details: culture supernatant of CHO cells expressing human type-X sPLA2, 30 min at 40° C., absorbance at 405 nm
From the text: cDNA sequence encoding human type-X sPLA2 (Cupillard et al., J. Biol. Chem, 1997, 272, 15745-15752) was inserted into the downstream region of the promoter of pSVL SV40 Late Promoter Expression Vector (Amersham Pharmacia Biotech Inc.) that is an expression vector for mammalian cells. The obtained expression vector was transfected into the host CHO cells with a LipofectAMINE reagent (Gibco BRL Inc.) according to the manufacture's instruction to obtain the CHO cells stably expressing human type-X sPLA2. The transfected cell was cultured in α-MEM medium containing 10% fetal calf serum for 3 days and its culture supernatant was used for the measurement of each enzyme activity.
In order to identify and evaluate an inhibitor of type-X sPLA2, the following chromogenic assay is utilized. This assay has been applied for high volume screening using a 96-well microtiterplate. A general explanation for this assay is described in “Analysis of Human Synovial Fluid Phospholipase A2 on Short Chain Phosphatidylcholine-Mixed Micelles: Development of a Spectrophotometric Assay Suitable for a Micortiterplate Reader” (Analytical Biochemistry, 204, pp 190-197, 1992 by Laure. J. Reynolds. Lori L. Hughes and Edward A. Dennis.
Test compounds (or solvent blank) were added according to the alignment of plates that had been previously set. Human type-X sPLA2 was incubated (30 min at 40° C. (15 μl/well)) with diheptanoylthio PC (1 mM) in the presence of Triton X-100 (0.3 mM) and 5,5′-dithiobis(2-nitrobenzoic acid) (125 μM) in Tris-HCl buffer (25 mM, pH 7.5) containing CaCl2 (10 mM), KCl (100 mM), and bovine serum albumin (1.0 mg/mL). The changes in the absorbance at 405 nm were measured and the inhibition activities were calculated.
The IC50 value was determined by plotting the log concentration of the above-mentioned compounds (1)-(19) with respect to their inhibition values within 10% to 90% inhibitory range.

Row | Structure (SMILES) | IC50
1 | CCCc1c(C(=O)C(N)=O)c2c(OCC(=O)O)nc(C)cn2c1CCc1ccccc1 [Compound 6] | 17 nM
2 | NC(=O)C1=CCCc2c1c1c(OCC(=O)O)cccn1c2Cc1ccccc1 [Compound 7] | 5 nM
3 | NC(=O)c1cccc2c1c1c(OCC(=O)O)cc(-c3ccco3)cc1n2Cc1ccccc1 [Compound 11] | 10 nM
